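Five concentrations, 48 hours, 96-well plates. Abbreviation: GI50, concentration required for 50% inhibition of growth. TGI is the concentration that stops growth completely.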
Key:
Experiment in all cases: NCI-60 cell line screen, 48 h
NCI-H23 lung = system: NCI-H23 lung
OVCAR-4 ovarian = system: OVCAR-4 ovarian
SNB-19 CNS = system: SNB-19 CNS
UACC-62 melanoma = system: UACC-62 melanoma
PC-3 prostate = system: PC-3 prostate
U251 CNS = system: U251 CNS
HOP-92 NSCLC = system: HOP-92 NSCLC
MCF7 breast = system: MCF7 breast
HCT-116 colon = system: HCT-116 colon
NCI-H460 lung = system: NCI-H460 lung
786-0 renal = system: 786-0 renal
T-47D breast = system: T-47D breast
DU-145 prostate = system: DU-145 prostate
ACHN renal = system: ACHN renal
RXF 393 renal = system: RXF 393 renal
NCI/ADR-RES ovarian = system: NCI/ADR-RES ovarian
CAKI-1 renal = system: CAKI-1 renal
RPMI-8226 leukemia = system: RPMI-8226 leukemia
SN12C renal = system: SN12C renal
MDA-MB-231 breast = system: MDA-MB-231 breast
COLO 205 colon = system: COLO 205 colon
HCT-15 colon = system: HCT-15 colon
SK-MEL-28 melanoma = system: SK-MEL-28 melanoma
MALME-3M melanoma = system: MALME-3M melanoma
A498 renal = system: A498 renal
SF-295 CNS = system: SF-295 CNS
A549 NSCLC = system: A549 NSCLC
LOX IMVI melanoma = system: LOX IMVI melanoma
NCI-H226 lung = system: NCI-H226 lung
EKVX NSCLC = system: EKVX NSCLC
MDA-MB-435 = system: MDA-MB-435
IGROV1 ovarian = system: IGROV1 ovarian
HOP-62 NSCLC = system: HOP-62 NSCLC
M14 melanoma = system: M14 melanoma
SK-OV-3 ovarian = system: SK-OV-3 ovarian
OVCAR-5 ovarian = system: OVCAR-5 ovarian
SW-620 colon = system: SW-620 colon
HL-60(TB) leukemia = system: HL-60(TB) leukemia
MOLT-4 leukemia = system: MOLT-4 leukemia
SNB-75 CNS = system: SNB-75 CNS
UO-31 renal = system: UO-31 renal
OVCAR-8 ovarian = system: OVCAR-8 ovarian
KM12 colon = system: KM12 colon
OVCAR-3 ovarian = system: OVCAR-3 ovarian
SR leukemia = system: SR leukemia
SF-268 CNS = system: SF-268 CNS
HS 578T breast = system: HS 578T breast
CCRF-CEM leukemia = system: CCRF-CEM leukemia
K-562 leukemia = system: K-562 leukemia
HCC-2998 colon = system: HCC-2998 colon
UACC-257 melanoma = system: UACC-257 melanoma
SK-MEL-5 melanoma = system: SK-MEL-5 melanoma
SF-539 CNS = system: SF-539 CNS
HT29 colon = system: HT29 colon
BT-549 breast = system: BT-549 breast
SK-MEL-2 melanoma = system: SK-MEL-2 melanoma

CCCCOC(=O)/C=C\C(=O)NC(N)=O
GI50 (NCI-H23 lung): 25.1 µM
TGI (NCI-H23 lung): 72.5 µM
GI50 (OVCAR-4 ovarian): 17.1 µM
TGI (OVCAR-4 ovarian): 43.8 µM
GI50 (SNB-19 CNS): 41.2 µM
TGI (SNB-19 CNS): > 100000 nM
GI50 (UACC-62 melanoma): 15.3 µM
TGI (UACC-62 melanoma): 30.1 µM
GI50 (PC-3 prostate): 25 µM
TGI (PC-3 prostate): 69.7 µM
GI50 (U251 CNS): 26.2 µM
TGI (U251 CNS): 89.3 µM
GI50 (HOP-92 NSCLC): 10.9 µM
TGI (HOP-92 NSCLC): 24.4 µM
GI50 (MCF7 breast): 13 µM
TGI (MCF7 breast): 76.7 µM
GI50 (HCT-116 colon): 13.4 µM
TGI (HCT-116 colon): 27.8 µM
GI50 (NCI-H460 lung): 31.9 µM
TGI (NCI-H460 lung): > 100000 nM
GI50 (786-0 renal): 20.1 µM
TGI (786-0 renal): 53.1 µM
GI50 (T-47D breast): 14.5 µM
TGI (T-47D breast): 95.5 µM
GI50 (DU-145 prostate): 10.1 µM
TGI (DU-145 prostate): > 100000 nM
GI50 (ACHN renal): 15.3 µM
TGI (ACHN renal): 30.3 µM
GI50 (RXF 393 renal): 12.7 µM
TGI (RXF 393 renal): 27.1 µM
GI50 (NCI/ADR-RES ovarian): 27 µM
TGI (NCI/ADR-RES ovarian): 74.3 µM
GI50 (CAKI-1 renal): 2530 nM
TGI (CAKI-1 renal): 9.23 µM
GI50 (RPMI-8226 leukemia): 7.88 µM
TGI (RPMI-8226 leukemia): 28.9 µM
GI50 (SN12C renal): 41.5 µM
TGI (SN12C renal): > 100 µM
GI50 (MDA-MB-231 breast): 17.9 µM
TGI (MDA-MB-231 breast): 42.6 µM
GI50 (COLO 205 colon): 14 µM
TGI (COLO 205 colon): 29.1 µM
GI50 (HCT-15 colon): 15.6 µM
TGI (HCT-15 colon): 38.3 µM
GI50 (SK-MEL-28 melanoma): 19.1 µM
TGI (SK-MEL-28 melanoma): 42.5 µM
GI50 (MALME-3M melanoma): 14.7 µM
TGI (MALME-3M melanoma): 34.5 µM
GI50 (A498 renal): 29.3 µM
TGI (A498 renal): 78.1 µM
GI50 (SF-295 CNS): 47.2 µM
TGI (SF-295 CNS): > 100000 nM
GI50 (A549 NSCLC): 34.3 µM
TGI (A549 NSCLC): > 100 µM
GI50 (LOX IMVI melanoma): 17.4 µM
TGI (LOX IMVI melanoma): 32.4 µM
GI50 (NCI-H226 lung): 20 µM
TGI (NCI-H226 lung): 49.2 µM
GI50 (EKVX NSCLC): 23.1 µM
TGI (EKVX NSCLC): 56.9 µM
GI50 (MDA-MB-435): 24.7 µM
TGI (MDA-MB-435): 85 µM
GI50 (IGROV1 ovarian): 20.4 µM
TGI (IGROV1 ovarian): 54.3 µM
GI50 (HOP-62 NSCLC): 32.5 µM
TGI (HOP-62 NSCLC): > 100 µM
GI50 (M14 melanoma): 17.2 µM
TGI (M14 melanoma): 36.6 µM
GI50 (SK-OV-3 ovarian): 44.9 µM
TGI (SK-OV-3 ovarian): > 100000 nM
GI50 (OVCAR-5 ovarian): 25.6 µM
TGI (OVCAR-5 ovarian): 81.7 µM
GI50 (SW-620 colon): 14.5 µM
TGI (SW-620 colon): 32.3 µM
GI50 (HL-60(TB) leukemia): 22.8 µM
TGI (HL-60(TB) leukemia): 49.9 µM
GI50 (MOLT-4 leukemia): 38.3 µM
TGI (MOLT-4 leukemia): > 100 µM
GI50 (SNB-75 CNS): 18 µM
TGI (SNB-75 CNS): 74.9 µM
GI50 (UO-31 renal): 13.4 µM
TGI (UO-31 renal): 31 µM
GI50 (OVCAR-8 ovarian): 29.7 µM
TGI (OVCAR-8 ovarian): > 100 µM
GI50 (KM12 colon): 25 µM
TGI (KM12 colon): 66.9 µM
GI50 (OVCAR-3 ovarian): 13 µM
TGI (OVCAR-3 ovarian): 26.2 µM
GI50 (SR leukemia): 35.7 µM
TGI (SR leukemia): > 100000 nM
GI50 (SF-268 CNS): 22.1 µM
TGI (SF-268 CNS): 61 µM
GI50 (HS 578T breast): 23.5 µM
TGI (HS 578T breast): > 100 µM
GI50 (CCRF-CEM leukemia): 15.9 µM
TGI (CCRF-CEM leukemia): 35.8 µM
GI50 (K-562 leukemia): 31.3 µM
TGI (K-562 leukemia): > 100 µM
GI50 (HCC-2998 colon): 19.8 µM
TGI (HCC-2998 colon): 35.4 µM
GI50 (UACC-257 melanoma): 21 µM
TGI (UACC-257 melanoma): 56.7 µM
GI50 (SK-MEL-5 melanoma): 24.3 µM
TGI (SK-MEL-5 melanoma): 71.4 µM
GI50 (SF-539 CNS): 24.6 µM
TGI (SF-539 CNS): 70 µM

CNCCCn1c2c(c3ccc(Cl)cc3c1=O)C(=O)c1cc(OC)cnc1-2
GI50 (OVCAR-4 ovarian): 1.27 µM
TGI (OVCAR-4 ovarian): 2.93 µM
GI50 (SNB-19 CNS): 0.614 µM
TGI (SNB-19 CNS): 2260 nM
GI50 (PC-3 prostate): 1.02 µM
TGI (PC-3 prostate): 2.33 µM
GI50 (HOP-92 NSCLC): 1.19 µM
TGI (HOP-92 NSCLC): 2.75 µM
GI50 (NCI-H460 lung): 0.0462 µM
TGI (NCI-H460 lung): 1250 nM
GI50 (DU-145 prostate): 0.331 µM
TGI (DU-145 prostate): 1740 nM
GI50 (ACHN renal): 0.224 µM
TGI (ACHN renal): 1.58 µM
GI50 (RXF 393 renal): 1.3 µM
TGI (RXF 393 renal): 2.84 µM
GI50 (NCI/ADR-RES ovarian): 0.536 µM
TGI (NCI/ADR-RES ovarian): 2.91 µM
GI50 (CAKI-1 renal): 63.1 nM
TGI (CAKI-1 renal): 1.78 µM
GI50 (SN12C renal): 1.18 µM
TGI (SN12C renal): 3.04 µM
GI50 (MDA-MB-231 breast): 1.62 µM
TGI (MDA-MB-231 breast): 3.54 µM
GI50 (SK-MEL-28 melanoma): 1.62 µM
TGI (SK-MEL-28 melanoma): 3.15 µM
GI50 (A498 renal): 0.531 µM
TGI (A498 renal): 9.07 µM
GI50 (SF-295 CNS): 0.132 µM
TGI (SF-295 CNS): 1380 nM
GI50 (NCI-H226 lung): 1.35 µM
TGI (NCI-H226 lung): 3.86 µM
GI50 (MDA-MB-435): 1.07 µM
TGI (MDA-MB-435): 2.32 µM
GI50 (M14 melanoma): 0.569 µM
TGI (M14 melanoma): 1.89 µM
GI50 (SK-OV-3 ovarian): 0.658 µM
TGI (SK-OV-3 ovarian): 2080 nM
GI50 (OVCAR-5 ovarian): 1.69 µM
TGI (OVCAR-5 ovarian): 3.18 µM
GI50 (SW-620 colon): 0.0762 µM
TGI (SW-620 colon): 1.98 µM
GI50 (HL-60(TB) leukemia): 0.601 µM
TGI (HL-60(TB) leukemia): 2.4 µM
GI50 (SNB-75 CNS): 0.263 µM
TGI (SNB-75 CNS): 1.78 µM
GI50 (UO-31 renal): 1.08 µM
TGI (UO-31 renal): 2.64 µM
GI50 (OVCAR-8 ovarian): 1.18 µM
TGI (OVCAR-8 ovarian): 3.5 µM
GI50 (KM12 colon): 1.1 µM
TGI (KM12 colon): 2.43 µM
GI50 (OVCAR-3 ovarian): 1.41 µM
TGI (OVCAR-3 ovarian): 2.78 µM
GI50 (SR leukemia): 0.143 µM
TGI (SR leukemia): 1110 nM
GI50 (SF-268 CNS): 0.397 µM
TGI (SF-268 CNS): 2.19 µM
GI50 (HT29 colon): 1080 nM
TGI (HT29 colon): 2450 nM
GI50 (UACC-257 melanoma): 2.24 µM
TGI (UACC-257 melanoma): 11.1 µM
GI50 (BT-549 breast): 645 nM
TGI (BT-549 breast): 2070 nM
GI50 (SK-MEL-5 melanoma): 1.12 µM
TGI (SK-MEL-5 melanoma): 2.49 µM
GI50 (SK-MEL-2 melanoma): 13.2 µM
TGI (SK-MEL-2 melanoma): 33.4 µM

From PubChem BioAssay (NCI)
